Reference: ChEMBL document CHEMBL4376886, “Design, Synthesis, and Evaluation of Novel Enterovirus 71 Inhibitors as Therapeutic Drug Leads for the Treatment of Human Hand, Foot, and Mouth Disease” (J Med Chem, 2020)

Tests used:
[1] = Inhibition of capsid protein VP1 in Enterovirus 71 (FY)-Luc infected in human RD cells assessed as reduction in virus-induced cell death preincubated for 24 hrs followed by […] substrate addition and measured after 5 mins by chemiluminescence analysis; format: cell-based, Enterovirus A71; settings: Enterovirus A
[2] = Cytotoxicity against human RD cells assessed as reduction in cell viability incubated for 24 hrs by MTT assay; settings: RD cells
[3] = Acute toxicity in juvenile zebrafish assessed as fatality rate at 200 uM after 24 hrs; settings: in vivo
[4] = Acute toxicity in juvenile zebrafish assessed as fatality rate at 20 uM after 24 hrs; settings: in vivo
[5] = Acute toxicity in juvenile zebrafish assessed as fatality rate at 50 uM after 24 hrs; settings: in vivo
[6] = Acute toxicity in juvenile zebrafish assessed as fatality rate at 100 uM after 24 hrs; settings: in vivo
[7] = Acute toxicity in juvenile zebrafish assessed as fatality rate at 20 uM after 48 hrs; settings: in vivo
[8] = Acute toxicity in juvenile zebrafish assessed as fatality rate at 50 uM after 48 hrs; settings: in vivo
[9] = Acute toxicity in juvenile zebrafish assessed as fatality rate at 100 uM after 48 hrs; settings: in vivo
[10] = Acute toxicity in juvenile zebrafish assessed as fatality rate at 200 uM after 48 hrs; settings: in vivo
in vivo [11] = settings: zebrafish
Description: Acute toxicity in juvenile zebrafish assessed as fatality rate at 150 uM after 24 hrs

in vivo [12] = settings: zebrafish; remark: listed apart in the source
Description: Acute toxicity in juvenile zebrafish assessed as fatality rate at 150 uM after 48 hrs

[13] = Acute toxicity in juvenile zebrafish assessed as pericarditis at 100 uM after 24 hrs; design: species or system Danio rerio; settings: in vivo

Compound	EC50 [1]	CC50 at 24 h [2]	mortality at 24 h, 200 µM [3]	mortality at 24 h, 20 µM [4]	mortality at 24 h, 50 µM [5]	mortality at 24 h, 100 µM [6]	mortality at 48 h, 20 µM [7]	mortality at 48 h, 50 µM [8]	mortality at 48 h, 100 µM [9]	mortality at 48 h, 200 µM [10]	mortality at 24 h, 150 µM (in vivo [11])	mortality at 48 h, 150 µM (in vivo [12])	Activity [13]
CCc1nc(-c2cc(C)c(OCCC(C)CCN3CCN(c4ccnc(N)c4)C3=O)c(C)c2)no1 (stereo not given)	> 25 nM	15.7 µM	–	–	–	–	–	–	–	–	–	–	–
CCO/N=C/c1ccc(OCCC(C)CCN2CCN(c3ccnc(O)c3)C2=O)cc1 (stereo not given)	> 25 nM	> 100 µM	–	–	–	–	–	–	–	–	–	–	–
CCO/N=C/c1ccc(OCCC(C)CCN2CCN(c3cccc(N)c3)C2=O)cc1 (stereo not given)	> 25 nM	> 100 µM	–	–	–	–	–	–	–	–	–	–	–
CCc1nc(-c2ccc(OCCC(C)CCN3CCN(c4ccnc(N)c4)C3=O)cc2)no1 (stereo not given)	0.0084 nM	> 100 µM	100%	40%	10%	30%	60%	100%	100%	100%	80%	100%	–
CCO/N=C/c1ccc(OCCC(C)CCN2CCN(c3ccccc3)C2=O)cc1 (stereo not given)	1.12 nM	> 100 µM	100%	100%	100%	100%	100%	100%	100%	100%	100%	100%	–
CCO/N=C/c1cc(C)c(OCCC(C)CCN2CCN(c3ccnc(N)c3)C2=O)c(C)c1 (stereo not given)	> 25 nM	12.8 µM	–	–	–	–	–	–	–	–	–	–	–
CC(CCOc1ccc(/C=N/O)cc1)CCN1CCN(c2ccnc(N)c2)C1=O (stereo not given)	> 25 nM	> 100 µM	–	–	–	–	–	–	–	–	–	–	–
CCCc1nc(-c2ccc(OCCC(C)CCN3CCN(c4ccnc(N)c4)C3=O)cc2)no1 (stereo not given)	0.15 nM	> 100 µM	100%	40%	100%	100%	60%	100%	100%	100%	100%	100%	–
CC(CCOc1ccc(-c2noc(C(F)(F)F)n2)cc1)CCN1CCN(c2ccnc(N)c2)C1=O (stereo not given)	0.537 nM	48.1 µM	100%	0%	30%	70%	0%	50%	100%	100%	80%	100%	–
CC(=O)Nc1cc(N2CCN(CCCCCOc3ccc(-c4noc(C)n4)cc3)C2=O)ccn1	> 25 nM	> 100 µM	–	–	–	–	–	–	–	–	–	–	–
CC(CCN1CCN(Cc2ccccc2)CC1)CCN1CCN(c2ccnc(N)c2)C1=O (stereo not given)	> 25 nM	> 100 µM	–	–	–	–	–	–	–	–	–	–	–
CCONCc1ccc(OCCC(C)CCN2CCN(c3ccnc(N)c3)C2=O)cc1 (stereo not given)	0.0119 nM	7.37 µM	–	–	–	–	–	–	–	–	–	–	–
CCO/N=C/c1ccc(OCCCCCN2CCN(c3ccnc(N)c3)C2=O)cc1	0.072 nM	59 µM	100%	20%	0%	100%	20%	100%	100%	100%	100%	100%	–
CCCc1nc(-c2cc(C)c(OCCC(C)CCN3CCN(c4ccnc(N)c4)C3=O)c(C)c2)no1 (stereo not given)	> 25 nM	14.1 µM	–	–	–	–	–	–	–	–	–	–	–
Cc1cc(-c2noc(C(F)(F)F)n2)cc(C)c1OCCC(C)CCN1CCN(c2ccnc(N)c2)C1=O (stereo not given)	> 25 nM	> 100 µM	–	–	–	–	–	–	–	–	–	–	–
CCO/N=C/c1ccc(OCCC(C)CCN2CCN(c3ccnc(OC)c3)C2=O)cc1 (stereo not given)	10 nM	> 100 µM	100%	100%	100%	100%	100%	100%	100%	100%	100%	100%	–
CCO/N=C/c1ccc(OCC#CCN2CCN(c3ccnc(N)c3)C2=O)cc1	> 25 nM	> 100 µM	–	–	–	–	–	–	–	–	–	–	–
Cc1nc(-c2ccc(OCCC(C)CCN3CCN(c4ccnc(N)c4)C3=O)cc2)no1 (stereo not given)	0.0061 nM	66.1 µM	100%	0%	0%	0%	0%	0%	100%	100%	10%	100%	–
CCO/N=C/c1ccc(OCCCCN2CCN(c3ccnc(N)c3)C2=O)cc1	> 25 nM	> 100 µM	–	–	–	–	–	–	–	–	–	–	–
CC(CCOc1ccc(-c2noc(C(C)(C)C)n2)cc1)CCN1CCN(c2ccnc(N)c2)C1=O (stereo not given)	0.0092 nM	55 µM	100%	0%	0%	80%	0%	0%	100%	100%	100%	100%	Toxic
Cc1nc(-c2cc(C)c(OCCC(C)CCN3CCN(c4ccnc(N)c4)C3=O)c(C)c2)no1 (stereo not given)	> 25 nM	28.8 µM	–	–	–	–	–	–	–	–	–	–	–
CCONC(=O)c1ccc(OCCC(C)CCN2CCN(c3ccnc(N)c3)C2=O)cc1 (stereo not given)	> 25 nM	> 100 µM	–	–	–	–	–	–	–	–	–	–	–
